Experiment [1] concerns E. coli TOP10 (GyrA^WT, ParC^WT). As to the kind of experiment: microbe, parasite or virus in culture. The conditions noted are these: Escherichia coli. The class given is cell-based.
Experiment [2] concerns E. coli TOP10-3 (GyrA^P35L, ParC^D79N). In words: MIC, antibacterial susceptibility (CLSI). The class given is cell-based. The conditions noted are these: Escherichia coli.
For experiment [3], the system named is uropathogens, including Escherichia coli. The conditions noted are these: cited from earlier work.

The source of these data is paper PMC11015057 (ACS Infectious Diseases, 2024).

Values after ≈ are worked out from the molar mass of the structure shown. Where two headings read alike, the source gives them in different places.

Turning to `O=c1ccc2ncc(=O)n3c2n1C[C@H]3CN1CCC(NCc2cc3c(cn2)OCCC3)CC1` [gepotidacin], the MIC in experiment [1] came out at 0.125 µg/mL (≈ 0.279 µM); in experiment [2], 16 µg/mL (≈ 35.7 µM). Besides, the “clinical efficacy versus nitrofurantoin” value in experiment [3] (EAGLE-3 phase III trial) is listed as “demonstrated statistically significant superiority versus nitrofurantoin”; in experiment [3] (phase III trials, patients with confirmed uncomplicated urinary tract infection and uropathogen susceptible to nitrofurantoin), “demonstrated noninferiority to nitrofurantoin”.
